Patent publication US11198695B2, “Fused ring derivative having MGAT-2 inhibitory activity” (Shionogi & Co., Ltd., priority 2017, dated 2021)

Each compound was assayed against recombinant human MGAT2 (Homo sapiens (Human), UniProt Q3SYC2) (assay: Measurement of human MGAT2 inhibitory activity). Settings: read-out: IC50 (concentration exhibiting 50% enzyme inhibition), Table 52.
Type: biochemical
Procedure, shortened: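 RapidFire ESI-MS read-out of the diolein/diolein-d5 peak ratio gave % inhibition, with no-enzyme and full-enzyme wells as 100% and 0%. Reactions ran 1 h at room temperature at pH 7.4 (phosphate, 2 mmol/L DTT), using Flag-tagged human MGAT2 membranes from Sf9 cells and a substrate solution of 30 μmol/L 2-oleoylglycerol and 10 μmol/L oleoyl-CoA.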

recombinant human MGAT2, sequence (Q3SYC2 whole entry): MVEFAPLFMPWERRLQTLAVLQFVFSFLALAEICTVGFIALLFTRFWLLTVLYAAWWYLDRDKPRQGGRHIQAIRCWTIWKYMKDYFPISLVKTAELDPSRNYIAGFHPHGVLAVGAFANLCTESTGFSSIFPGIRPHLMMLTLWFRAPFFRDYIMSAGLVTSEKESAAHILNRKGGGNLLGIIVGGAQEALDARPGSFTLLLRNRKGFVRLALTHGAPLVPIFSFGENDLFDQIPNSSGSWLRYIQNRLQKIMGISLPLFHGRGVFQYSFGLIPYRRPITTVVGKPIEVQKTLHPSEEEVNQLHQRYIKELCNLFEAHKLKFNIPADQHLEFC

IC50	SMILES
0.52 µM	Cc1cccc(Cn2nc(NC(=O)CS(C)(=O)=O)c3c2C[C@]2(CCc4cc(OCCCC(F)(F)F)ccc42)NC3=O)c1 [Compound I-74]
0.078 µM	CS(=O)(=O)CC(=O)Nc1c2c(nn1Cc1ccc(C(F)(F)F)o1)C[C@]1(CCc3cc(OCCCC(F)(F)F)ccc31)NC2=O [Compound I-173]
0.19 µM	CS(=O)(=O)CC(=O)Nc1c2c(nn1CCCc1ccccc1)C[C@]1(CCc3cc(OCCCC(F)(F)F)ccc31)NC2=O [Compound I-50]
0.0052 µM	CS(=O)(=O)CC(=O)Nc1c2c(nn1-c1ccc(F)c(F)c1)C[C@]1(CCc3cc(OCC(F)(F)F)ccc31)NC2=O [Compound I-131]
0.265 µM	CS(=O)(=O)CC(=O)Nc1c2c(nn1CCN1CCCC1)C[C@]1(CCc3cc(OCCCC(F)(F)F)ccc31)NC2=O [Compound I-47]
0.013 µM	CS(=O)(=O)CC(=O)Nc1c2c(nn1CCOCC(F)F)C[C@]1(CCc3cc(OCCCC(F)(F)F)ccc31)NC2=O [Compound I-53]
0.016 µM	CS(=O)(=O)CC(=O)Nc1c2c(nn1CCc1ccc(F)cc1)C[C@]1(CCc3cc(OCC(F)(F)F)ccc31)NC2=O [Compound I-261]
0.0175 µM	CS(=O)(=O)CC(=O)Nc1c2c(nn1CCCC#N)C[C@]1(CCc3cc(OCCCC(F)(F)F)ccc31)NC2=O [Compound I-207]
0.00135 µM	CS(=O)(=O)CC(=O)Nc1c2c(nn1CCC1CC1)C[C@]1(CCc3cc(OCCCC(F)(F)F)ccc31)NC2=O [Compound I-2]
0.46 µM	CCCC(C)n1nc2c(c1NC(=O)CS(C)(=O)=O)C(=O)N[C@@]1(CCc3cc(OCC(F)(F)F)ccc31)C2 (some centres unmarked) [Compound I-214]
0.01 µM	CS(=O)(=O)CC(=O)Nc1c2c(nn1CCC1CCCCC1)C[C@]1(CCc3cc(OCCCC(F)(F)F)ccc31)NC2=O [Compound I-57]
0.25 µM	CS(=O)(=O)CC(=O)Nc1nn(CCCC(F)(F)F)c2c1C(=O)N[C@@]1(CCc3cc(OCCCC(F)(F)F)ccc31)C2 [Compound I-208]
0.086 µM	CS(=O)(=O)CC(=O)Nc1c2c(nn1-c1ccc(C#N)cc1)C[C@]1(CCc3cc(F)cc(F)c31)NC2=O [Compound I-164]
0.55 µM	CS(=O)(=O)CC(=O)Nc1nn(Cc2nc(C(F)(F)F)cs2)c2c1C(=O)N[C@@]1(CCc3cc(OCCCC(F)(F)F)ccc31)C2 [Compound I-210]
0.016 µM	O=C(Nc1c2c(nn1CCC1CC1)C[C@]1(CCc3cc(OCC(F)(F)F)ccc31)NC2=O)c1ccncc1 [Compound I-80]
0.025 µM	CS(=O)(=O)CC(=O)Nc1c2c(nn1CC1CCCO1)C[C@]1(CCc3cc(OCCCC(F)(F)F)ccc31)NC2=O (some centres unmarked) [Compound I-56]
0.0475 µM	O=C(Nc1c2c(nn1CCC1CC1)C[C@]1(CCc3cc(OCC(F)(F)F)ccc31)NC2=O)c1cocn1 [Compound I-231]
0.055 µM	O=C1N[C@@]2(CCc3cc(OCC(F)(F)F)ccc32)Cc2nn(CCC3CC3)c(C(=O)NCC3(CO)COC3)c21 [Compound I-89]
0.024 µM	CS(=O)(=O)CC(=O)Nc1c2c(nn1CCc1ccccc1)C[C@]1(CCc3cc(OCCCC(F)(F)F)ccc31)NC2=O [Compound I-52]
0.051 µM	CC(C)S(=O)(=O)NC(=O)c1c2c(nn1CCC1CC1)C[C@]1(CCc3cc(OCC(F)(F)F)ccc31)NC2=O [Compound I-117]
0.06 µM	Cc1nnsc1C(=O)Nc1c2c(nn1CCC1CC1)C[C@]1(CCc3cc(OCC(F)(F)F)ccc31)NC2=O [Compound I-221]
0.0955 µM	CS(=O)(=O)CC(=O)Nc1c2c(nn1C1CCCC1)C[C@]1(CCc3cc(OCC(F)(F)F)ccc31)NC2=O [Compound I-76]
0.15 µM	O=C(Nc1c2c(nn1CCC1CC1)C[C@]1(CCc3cc(OCCCC(F)(F)F)ccc31)NC2=O)c1ccc(F)cc1 [Compound I-16]
0.23 µM	O=C1N[C@@]2(CCc3cc(OCC(F)(F)F)ccc32)Cc2nn(CCC3CC3)c(CNC(=O)C3CCCC3)c21 [Compound I-82]
0.035 µM	O=C(Nc1c2c(nn1CCC1CC1)C[C@]1(CCc3cc(OCC(F)(F)F)ccc31)NC2=O)c1cncnc1 [Compound I-216]
0.57 µM	O=C1N[C@@]2(CCc3cc(OCC(F)(F)F)ccc32)Cc2nn(CCC3CC3)c(C(=O)NCCO)c21 [Compound I-85]

Same assay, conditions: read-out: IC50 (concentration exhibiting 50% enzyme inhibition), Table 53

SMILES	IC50
N#Cc1ccc(-n2nc3c(c2C(=O)NCC2(CO)COC2)C(=O)N[C@@]2(CCc4cc(OCC(F)(F)F)ccc42)C3)nc1 [II-62]	0.0153 µM
CC1(C)CN(c2ccc3c(c2)CC[C@@]32Cc3nn(CCC4CC4)c(NC(=O)CS(C)(=O)=O)c3C(=O)N2)C1 [II-37]	0.012 µM
CS(=O)(=O)CC(=O)Nc1c2c(nn1CCc1ccc(F)cc1)C[C@@]1(CCc3cc(OCC(F)(F)F)ccc31)NC2=O [II-23]	0.018 µM
CS(=O)(=O)CC(=O)Nc1c2c(nn1C1CC3(COC3)C1)C[C@]1(CCc3cc(OCC(F)(F)F)ccc31)NC2=O [II-11]	0.064 µM
CS(=O)(=O)CC(=O)Nc1c2c(nn1CCCC(F)(F)F)C[C@@]1(NC2=O)c2ccc(OCC(F)(F)F)cc2CC1(F)F [II-85]	0.0455 µM
CS(=O)(=O)CC(=O)Nc1c2c(nn1-c1ccc(F)c(F)c1)C[C@]1(NC2=O)c2ccc(OCC(F)(F)F)cc2CC1(F)F [II-88]	0.00367 µM

Further lines, results first:

IC50	SMILES
0.202 µM	N#Cc1ccc(-n2nc3c(c2C(=O)NCC(O)c2ccccn2)C(=O)N[C@@]2(CCc4cc(OCC(F)(F)F)ccc42)C3)nc1 (some centres unmarked) [II-129]
0.0159 µM	CS(=O)(=O)CC(=O)Nc1c2c(nn1-c1ccc(F)cc1)CC1(CN(c3ccc(C(F)(F)F)cc3)C1)NC2=O [II-301]
0.0443 µM	CS(=O)(=O)CC(=O)Nc1c2c(nn1CCC1CC1)C[C@@]1(NC2=O)c2ccc(OCC(F)(F)F)cc2CC1(F)F [II-92]
0.193 µM	N#Cc1ccc(-n2nc3c(c2C(=O)NC2CCNC2=O)C(=O)N[C@@]2(CCc4cc(OCC(F)(F)F)ccc42)C3)nc1 (some centres unmarked) [II-132]
0.00615 µM	Cc1ccc(-n2nc3c(c2NC(=O)CS(C)(=N)=O)C(=O)N[C@@]2(CCc4cc(OCC(F)(F)F)ccc42)C3)nc1 (single isomer, unassigned) [II-275]
0.0379 µM	N#Cc1ccc(-n2nc3c(c2C(=O)N[C@H]2C[C@H](O)C2)C(=O)N[C@@]2(CCc4cc(OCC(F)(F)F)ccc42)C3)nc1 [II-117]
0.00343 µM	CS(=O)(=O)CC(=O)Nc1c2c(nn1CCCOC(F)(F)F)C[C@@]1(CCc3cc(OCC(F)(F)C(F)F)ccc31)NC2=O [II-237]
0.00462 µM	Cc1ccc(-n2nc3c(c2C(=O)NCC#N)C(=O)N[C@@](c2ccc(OCC(F)(F)F)cc2F)(C(F)(F)F)C3)nc1 [II-239]
0.00501 µM	N#Cc1ccc(-n2nc3c(c2C(=O)NC2CC(F)(F)C2)C(=O)N[C@@]2(CCc4cc(OCC(F)(F)F)ccc42)C3)nc1 [II-188]
< 0.001 µM	CS(=O)(=O)CC(=O)Nc1c2c(nn1CCCOC(F)(F)F)C[C@]1(CCc3cc(CCC(F)(F)F)ccc31)NC2=O [II-283]
< 0.001 µM	CS(=O)(=O)CC(=O)Nc1c2c(nn1-c1ccc(C(F)F)cn1)C[C@]1(CCc3cc(OCC(F)(F)F)ccc31)NC2=O [II-297]
0.00428 µM	Cc1cc(-n2nc3c(c2C(=O)NCC(N)=O)C(=O)N[C@@]2(CCc4cc(OCC(F)(F)F)ccc42)C3)no1 [II-253]
0.0123 µM	Cc1cc(-n2nc3c(c2NC(=O)CS(C)(=O)=O)C(=O)N[C@@]2(CCc4cc(OCC(F)(F)F)ccc42)C3)ccc1C#N [II-148]
0.00579 µM	N#Cc1ccc(-n2nc3c(c2C(=O)NCC2(CO)CC2)C(=O)N[C@@]2(CCc4cc(OCC(F)(F)F)ccc42)C3)nc1 [II-131]
0.00626 µM	N#Cc1ccc(-n2nc3c(c2C(=O)NCC2(O)COC2)C(=O)N[C@@]2(CCc4cc(OCC(F)(F)F)ccc42)C3)nc1 [II-118]
0.0678 µM	N#Cc1ccc(-n2nc3c(c2C(=O)NS(=O)(=O)Cc2ccccc2)C(=O)N[C@@]2(CCc4cc(OCC(F)(F)F)ccc42)C3)nc1 [II-218]
0.0127 µM	N#Cc1ccc(-n2nc3c(c2C(=O)NCCC(F)(F)F)C(=O)N[C@@]2(CCc4cc(OCC(F)(F)F)ccc42)C3)nc1 [II-126]
0.0256 µM	Cc1ccc(-n2nc3c(c2C(=O)NCCS(N)(=O)=O)C(=O)N[C@@](c2ccc(OCC(F)(F)F)cc2F)(C(F)(F)F)C3)nc1 [II-242]
0.00274 µM	CC(F)(F)COc1ccc2c(c1)CC[C@@]21Cc2nn(CCCOC(F)(F)F)c(NC(=O)CS(C)(=O)=O)c2C(=O)N1 [II-255]
0.0298 µM	Cc1ccc(-n2nc3c(c2C(=O)NCCC(F)(F)F)C(=O)N[C@@]2(CCc4cc(OCC(F)(F)F)ccc42)C3)nc1 [II-195]
0.0544 µM	O=C1N[C@@]2(CCc3cc(OCC(F)(F)F)ccc32)Cc2nn(CCCOC(F)F)c(C(=O)NCC3(O)CC3)c21 [II-265]
0.0736 µM	Cc1ccc(-n2nc3c(c2C(=O)NCCS(C)(=O)=O)C(=O)N[C@@]2(CCc4cc(OCC(F)(F)F)ccc42)C3)nc1 [II-199]
0.000439 µM	CS(=O)(=O)CC(=O)Nc1c2c(nn1-c1ccc(C3CC3)nn1)C[C@]1(CCc3cc(OCCCC(F)(F)F)ccc31)NC2=O [II-259]
0.0484 µM	COCCS(=O)(=O)NC(=O)c1c2c(nn1-c1ccc(C)c(F)c1)C[C@]1(CCc3cc(OCC(F)(F)F)ccc31)NC2=O [II-247]
0.00476 µM	CS(=O)(=O)CC(=O)Nc1c2c(nn1CCC1CC1)C[C@@]1(CCc3cc(OCCOCC(F)(F)F)ccc31)NC2=O [II-100]
0.0606 µM	CC(C)(O)CNC(=O)c1c2c(nn1-c1ccc(C#N)cn1)C[C@]1(CCc3cc(OCC(F)(F)F)ccc31)NC2=O [II-135]
0.00221 µM	CS(=O)(=O)CC(=O)Nc1c2c(nn1-c1ccc(F)c(F)c1)C[C@]1(CCOc3cc(C4CC4)ccc31)NC2=O [II-224]
0.0534 µM	Cc1ccc(-n2nc3c(c2C(=O)NCC2(C#N)CC2)C(=O)N[C@@]2(CCc4cc(OCC(F)(F)F)ccc42)C3)cc1F [II-222]
0.00738 µM	Cc1cc(-n2nc3c(c2NC(=O)CS(C)(=O)=O)C(=O)N[C@@]2(CCc4cc(OCC(F)(F)F)ccc42)C3)on1 [II-169]
0.0036 µM	Cc1ccc(-n2nc3c(c2NC(=O)CS(C)(=O)=O)C(=O)N[C@@]2(CCc4cc(C5CC5)ccc42)C3)nc1 [II-156]
